Data from PubChem BioAssay (NCI).
Several values for one entry are separate records, joined by “and”; a condition that tells them apart may be missing. Identical values can stand only once.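 In this assay, cells in 96-well plates receive the compound at five concentrations for 48 hours. Endpoints are linearly interpolated between the surrounding concentrations. At the GI50, growth is halved. TGI: total growth inhibition.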

Tests used:
Experiment in all cases: NCI tumour cell line growth inhibition, 48 h
DMS 114 small cell lung = test system: DMS 114 small cell lung
SNB-78 CNS = test system: SNB-78 CNS
P388/ADR leukemia = test system: P388/ADR leukemia
P388 leukemia = test system: P388 leukemia
LXFL 529 NSCLC = test system: LXFL 529 NSCLC
RXF-631 renal = test system: RXF-631 renal

Structure (SMILES)	TGI (DMS 114 small cell lung)	TGI (SNB-78 CNS) [µM]	TGI (P388/ADR leukemia)	TGI (P388 leukemia) [µM]	TGI (LXFL 529 NSCLC) [µM]	also measured
CC1C(=O)OC2CC[N+]3(CC(=O)c4ccc(Br)cc4)CC=C(COC(=O)C(C)(O)C1(C)O)C23 (centres undefined)	> 375 µM	> 174	> 375 µM	> 174	–	–
COC(=O)CCC(=O)CC(=O)C1=NS(=O)(=O)c2nc(S(N)(=O)=O)c(Cl)cc2N1	> 100 µM	–	–	–	> 100	TGI (RXF-631 renal): > 100 µM
N#C[S-].[Nd+3].c1cnc2c(c1)ccc1cccnc12.c1cnc2c(c1)ccc1cccnc12.c1cnc2c(c1)ccc1cccnc12	4.67 µM	–	–	–	14.8	GI50 (LXFL 529 NSCLC): 1.84 µM; GI50 (DMS 114 small cell lung): 1.59 µM
Cc1cc(NC(=S)Nc2ccccc2)c(NC(=S)Nc2ccccc2)cc1C	–	–	19.1 µM	13.5	–	–
CC1=C(C)C(=O)O[C@@H]([C@](C)(O)[C@]2(O)CC[C@@]3(O)[C@@H]4C[C@H]5O[C@]56[C@@H](O)C=CC(=O)[C@]6(C)[C@H]4CC[C@]23C)C1	0.588 µM and 0.567 µM	–	98.8 µM and 250 µM	–	–	GI50 (P388/ADR leukemia): 2.5 µM and 0.487 µM; GI50 (P388 leukemia): 0.17 µM and 0.0616 µM
C[n+]1c2ccccc2c(CNc2ccc(S(=O)(=O)N=C(N)N)cc2)c2ccccc21	20.8 µM	78.1	–	–	–	–
